Results: publication PMC8067632, “Assessment and Development of the Antifungal Agent Caspofungin for Aerosolized Pulmonary Delivery” (Pharmaceutics, 2021)
≈ marks a conversion by molar mass, not a printed value.

What was measured:
Assay type in all cases: cell-based
[1] = test system: Candida albicans ATCC44858; experiment: microbe, parasite or virus in culture; conditions: Candida albicans, ATCC44858; CLSI broth microdilution, visual, duplicate; read-out: MIC
Procedure: (§1) Antifungal potency of the test article(s) was measured using the in vitro broth microdilution assay under test conditions described by the Clinical and Laboratory Standards Institute. Minimum Inhibitory Concentration (MIC) is defined as the lowest concentration of an agent that causes a specified reduction in visible growth of the microorganism. Minimum Effective Concentration (MEC) is defined as the lowest concentration of an agent that leads to the growth of small, rounded, compact hyphal forms, as compared to the hyphal growth typically seen in the growth control well. MIC values were determined for 9 Candida spp., and MEC values were determined for filamentous fungus species (Aspergillus fumigatus and Trichophyton rubrum). Details of the test article preparations and methodologies are described in Supplementary Material S1.
(§2) Following incubation, the test plates were visually examined and wells were scored for growth or complete growth inhibition to define the MIC values. Microscopy examination was used to determine the MEC values. Each test substance was evaluated in duplicate and the results are the duplicate test values. Vehicle-control and an active reference agent were used as blank and positive controls, respectively. […]
(§3) S1. In Vitro Testing, Test Article Preparations
(§4) The 5 mg/mL stock solution was prepared as the following. The refrigerated vial was equilibrated to room temperature. Test vial was reconstituted aseptically with 10.5 mL 0.9% NaCl. The powder was dissolved completely, mixing until a clear solution was ob-tained. The final concentration was 5.0 mg/mL of caspofungin freebase. The reconstituted solution was stable for 1 hr at room temperature. The 5 mg/mL stock solution was then […]
(§5) The refrigerated vial was equilibrated to room temperature. The powder was dis-solved completely, mixing until a clear solution was obtained. Test vial was reconstituted aseptically with 1.8 mL 0.9% NaCl. The white to off-white powder was dissolved com-pletely, mixing gently until a clear solution was obtained. The final concentration was 5.0 mg/mL of caspofungin freebase. The reconstituted solution was used within 1 hr at room temperature. The 5 mg/mL stock solution was then diluted with 0.9% NaCl to prepare the […]
(§6) 1.3. Caspofungin Diacetate
(§7) The 5 mg/mL API stock solution was prepared as the following. The refrigerated vial was equilibrated to room temperature. Test vial was filled aseptically with 1.8 mL 0.9%
(§8) NaCl. The powder was dissolved completely, mixing until a clear solution was obtained.
(§9) The final concentration was 5.0 mg/mL of caspofungin freebase. The reconstituted solu-tion was used within 1 hr at room temperature. The 5 mg/mL stock solution was then […]
(§10) g compound, corresponding to 1.2 mg active compound with a correction factor of 2.40 was added 0.375 mL of water for injection to generate the 3.2 mg/mL working stock solution for testing. The 3.2 mg/mL working stock solution was 2-fold diluted seri-ally in 0.9% NaCl to prepare a total of eleven 50-fold stock solutions, concentrations rang-ing from 3.2 to 0.003 mg/mL. A 4 μL aliquot of each dilution was added to 196 μL of broth medium seeded with the organism suspension in wells of a 96 well plate (fungal cell count: 1 x 10^3 to 1 x 10^4 colony forming units per mL). The final volume was 200 μL in each […]

[2] = test system: Candida albicans ATCC90028 + 50%human serum; experiment: microbe, parasite or virus in culture; conditions: Candida albicans, ATCC90028, CLSI broth microdilution, duplicate, read-out: MIC
Procedure: as §1, §2, §3, §4, §5, §6, §7, §8, §9, §10

[3] = test system: Candida albicans ATCC90028; experiment: microbe, parasite or virus in culture; conditions: Candida albicans, ATCC90028; CLSI broth microdilution, visual, duplicate; read-out: MIC
Procedure: as §1, §2, §3, §4, §5, §6, §7, §8, §9, §10

[4] = test system: Candida albicans Azole-R (20183.073); experiment: microbe, parasite or virus in culture; conditions: Candida albicans; CLSI broth microdilution, azole-resistant strain, duplicate; read-out: MIC
Procedure: as §1, §2, §3, §4, §5, §6, §7, §8, §9, §10

[5] = test system: Candida albicans Azole-R (20186.025); experiment: microbe, parasite or virus in culture; conditions: Candida albicans
Procedure: as §1, §2, §3, §4, §5, §6, §7, §8, §9, §10

[6] = test system: Candida glabrata ATCC 36583; experiment: microbe, parasite or virus in culture; conditions: Nakaseomyces glabratus, ATCC36583; CLSI broth microdilution, duplicate; read-out: MIC
Procedure: as §1, §2, §3, §4, §5, §6, §7, §8, §9, §10

Candida krusei ATCC 6258 = experiment: microbe, parasite or virus in culture; conditions: Pichia kudriavzevii, ATCC6258; CLSI broth microdilution, duplicate; read-out: MIC
Procedure: as §1, §2, §3, §4, §5, §6, §7, §8, §9, §10

[7] = test system: Candida parapsilosis ATCC 22019; experiment: microbe, parasite or virus in culture; conditions: Lodderomyces parapsilosis, ATCC22019; CLSI broth microdilution, duplicate; read-out: MIC
Procedure: as §1, §2, §3, §4, §5, §6, §7, §8, §9, §10

[8] = test system: Candida tropicalis ATCC 200956; experiment: microbe, parasite or virus in culture; conditions: Candida tropicalis, ATCC200956; CLSI broth microdilution, duplicate; read-out: MIC
Procedure: as §1, §2, §3, §4, §5, §6, §7, §8, §9, §10

[9] = test system: Aspergillus fumigatus ATCC 13073; experiment: Broth microdilution MEC; conditions: CLSI broth microdilution, microscopy, duplicate
Procedure: as §1, §2, §3, §4, §5, §6, §7, §8, §9, §10

[10] = test system: Aspergillus fumigatus ATCC204305; experiment: Broth microdilution MEC; conditions: CLSI broth microdilution, microscopy, duplicate
Procedure: as §1, §2, §3, §4, §5, §6, §7, §8, §9, §10

[11] = test system: Trichophyton rubrum ATCC 10218; experiment: Broth microdilution MEC; conditions: CLSI broth microdilution, microscopy, duplicate
Procedure: as §1, §2, §3, §4, §5, §6, §7, §8, §9, §10

`C[C@@H]1[C@H](O)[C@@H](C)/C=C/C=C/C=C/C=C/C=C/C=C/C=C/[C@H](O[C@@H]2O[C@H](C)[C@@H](O)[C@H](N)[C@@H]2O)C[C@@H]2O[C@](O)(C[C@@H](O)C[C@@H](O)[C@H](O)CC[C@@H](O)C[C@@H](O)CC(=O)O[C@H]1C)C[C@H](O)[C@H]2C(=O)O` [Amphotericin B] showed an MIC [1] of 0.125 µg/mL (≈ 0.135 µM), an MIC [2] of 0.25 µg/mL (≈ 0.271 µM) and an MIC [3] of 0.125 µg/mL (≈ 0.135 µM). It also gave an MIC [4] of 0.125 µg/mL (≈ 0.135 µM), an MIC [5] of 0.25 µg/mL (≈ 0.271 µM) and an MIC [6] of 0.125 µg/mL (≈ 0.135 µM). For the same compound, the MIC (Candida krusei ATCC 6258) was 0.25 µg/mL (≈ 0.271 µM), the MIC [7] was 0.25 µg/mL (≈ 0.271 µM) and the MIC [8] was 1 µg/mL (≈ 1.08 µM). For the same compound, the MEC [9] was 0.25 µg/mL, the MEC [10] was 0.5 µg/mL and the MEC [11] was 0.125 µg/mL.
